According to ChEMBL document CHEMBL1129845, “Digitalis-like compounds: Synthesis and biological evaluation of 3-(aminoalkylthio) derivatives” (Bioorg Med Chem Lett, 1997):
Active and inactive are the calls of the source. The rule behind the calls is not given here.

Target: not listed separately
Experiment: Displacement of [3H]ouabain binding from Na+,K+ -ATPase receptor isolated from dog kidney
Set-up: species or system Canis lupus familiaris
In the case of `C[C@]12CC[C@H](SCC[N+](C)(C)C)C[C@H]1CC[C@@H]1[C@@H]2CC[C@]2(C)[C@@H](C3=CC(=O)OC3)CC[C@]12O`, the “-Log IC50” value is reported as 7.
With `C[C@]12CC[C@H](SCCCN)C[C@H]1CC[C@@H]1[C@@H]2CC[C@]2(C)[C@@H](C3=CC(=O)OC3)CC[C@]12O` the “-Log IC50” value was 7.1.
In the case of `C[C@]12CC[C@H](S)C[C@H]1CC[C@@H]1[C@@H]2CC[C@]2(C)[C@@H](C3=CC(=O)OC3)C[C@H]3O[C@]132`, the “-Log IC50” value is reported as 5.6.
For `C[C@]12CCC3C(CC[C@@H]4C[C@@H](SCCCN)CC[C@]34C)C1=CC[C@@H]2C1=CC(=O)OC1` (stereo partly drawn), the “-Log IC50” value was 5.8.
For `C[C@]12CC[C@H](SCCCN)C[C@H]1CC[C@@H]1[C@@H]2CC[C@]2(C)[C@@H]([C@@H]3COC(=O)C3)CC[C@]12O`, the “-Log IC50” value was 6.5.
For `C[C@]12CC[C@H](SCCCN)C[C@H]1CC[C@@H]1[C@@H]2CC[C@]2(C)[C@@H](C3=CC(=O)OC3)CC[C@@H]12`, the “-Log IC50” value was 5.8.
With `C[C@]12CC[C@H](O)C[C@H]1CC[C@@H]1[C@@H]2CC[C@]2(C)[C@@H](C3=CC(=O)OC3)C[C@H]3O[C@]132` the “-Log IC50” value was 6.6.
In the case of `C[C@]12CC[C@H](O)C[C@H]1CC[C@@H]1[C@@H]2CC[C@]2(C)[C@@H](C3=CC(=O)OC3)CC[C@@H]12`, the “-Log IC50” value is reported as 5.2.
With `C[C@]12CC[C@H](S)C[C@H]1CC[C@@H]1[C@@H]2CC[C@]2(C)[C@@H]([C@H]3COC(=O)C3)CC[C@]12O` the “-Log IC50” value was 5.5.
For `C[C@]12CC[C@H](O)C[C@H]1CC[C@@H]1[C@@H]2CC[C@]2(C)[C@@H]([C@H]3COC(=O)C3)CC[C@]12O`, the “-Log IC50” value was 5.8.
In the case of `C[C@]12CC[C@H](SCCN3CCCC3)C[C@H]1CC[C@@H]1[C@@H]2CC[C@]2(C)[C@@H](C3=CC(=O)OC3)CC[C@]12O`, the “-Log IC50” value is reported as 6.7.
With `C[C@]12CC[C@H](SCCCN3CCCC3)C[C@H]1CC[C@@H]1[C@@H]2CC[C@]2(C)[C@@H](C3=CC(=O)OC3)CC[C@]12O` the “-Log IC50” value was 6.8.
In the case of `C[C@]12CC[C@H](S)C[C@H]1CC[C@@H]1[C@@H]2CC[C@]2(C)[C@@H](C3=CC(=O)OC3)CC[C@]12O`, the “-Log IC50” value is reported as 6.
With `C[C@]12CC[C@H](S)C[C@H]1CC[C@@H]1[C@@H]2CC[C@]2(C)[C@@H]([C@@H]3COC(=O)C3)CC[C@]12O` the “-Log IC50” value was 5.
In the case of `C[C@]12CC[C@H](SCCCN3CCNCC3)C[C@H]1CC[C@@H]1[C@@H]2CC[C@]2(C)[C@@H](C3=CC(=O)OC3)CC[C@]12O`, the “-Log IC50” value is reported as 6.5.
With `C[C@]12CC[C@H](O)C[C@H]1CC[C@@H]1[C@@H]2CC[C@]2(C)[C@@H]([C@@H]3COC(=O)C3)CC[C@]12O` the “-Log IC50” value was 5.6.
With `CN(C)CCCS[C@H]1CC[C@@]2(C)[C@H](CC[C@@H]3[C@@H]2CC[C@]2(C)[C@@H](C4=CC(=O)OC4)CC[C@]32O)C1` the “-Log IC50” value was 7.
With `C[C@]12CC[C@H](O)C[C@H]1CC[C@@H]1[C@@H]2CC[C@]2(C)[C@@H](C3=CC(=O)OC3)CC[C@]12O` [DIGITOXIGENIN] the “-Log IC50” value was 7.2.
With `C[C@]12CC[C@H](SCCCN)C[C@H]1CC[C@@H]1[C@@H]2CC[C@]2(C)[C@@H]([C@H]3COC(=O)C3)CC[C@]12O` the “-Log IC50” value was 6.5.
In the case of `C[C@]12CC[C@H](SCCN)C[C@H]1CC[C@@H]1[C@@H]2CC[C@]2(C)[C@@H](C3=CC(=O)OC3)CC[C@]12O`, the “-Log IC50” value is reported as 7.5.
For `C[C@]12CC[C@H](SCCCN)C[C@H]1CC[C@@H]1[C@@H]2CC[C@]2(C)[C@@H](C3=CC(=O)OC3)C[C@H]3O[C@]132`, the “-Log IC50” value was 6.6.
For `C[C@]12CCC3C(CC[C@@H]4C[C@@H](O)CC[C@]34C)C1=CC[C@@H]2C1=CC(=O)OC1` (stereo partly drawn), the “-Log IC50” value was 5.5.

Species on record: Canis lupus familiaris
Experiment: Displacement of [3H]ouabain binding to Na+,K+ -ATPase receptor isolated from dog kidney; NA = <50% displacement at 10e-5 M
With `C[C@]12CC[C@H](S)C[C@H]1CC[C@@H]1[C@@H]2CC[C@]2(C)[C@@H](C3=CC(=O)OC3)CC[C@@H]12` the “-Log IC50” value was “inactive”.
